Results published in patent US6995022B1, “Screening of xenobiotics and endogenous compounds for metabolic transformation, formation of toxic metabolites, and bioavailability” (Board of Trustees of the University of Illinois, priority 1998, dated 2006).

Tests used:
Caco-2 cells = type: in vitro ADME; conditions: human, Caco-2, 118 µM
Experimental: Bioavailability assays are generally carried out in one of two ways. In one type of assay, the chamber is loaded with cells (i.e., Caco-2 human intestinal epithelial cells) such that the volume of the cells is significant compared to the volume of the chamber (e.g., 1 million cells/mL), and a size exclusion experiment is carried out. (Hidalgo, et al. 1989). An aliquot of a drug mixture is injected through the chamber and the elution profile is recorded by the mass spectrometer detector. The mixture may contain a single drug or a mixture of drugs under investigation and two internal controls: The negative control compound (such as mannitol) is excluded from entering the cells; and the positive control compound (such as certain steroids) readily enters the cells. Compounds that are excluded from the cells are washed out of the ultrafiltration chamber faster and are detected first, while compounds that enter the cells are distributed into a larger volume within the chamber and require longer to elute. In this manner, quantitative bioavailability or absorption data may be determined. In another type of bioavailability assay, a monolayer of cells (i.e., Caco-2 cells) is grown on an ultrafiltration membrane, which is then mounted in the ultrafiltration chamber with the cells facing the interior of the chamber. […] Compounds that readily enter and pass through the cells are detected first. […]

[1] = test system: rat liver microsomal cytochromes P450; conditions: for extent of metabolism by cytochromes P450 indicated by high throughput assays: microsomes
Experimental: Chlorpromazine is an antidepressant-drug that undergoes extensive hepatic metabolism. […] The area under the curve for unreacted chlorpromazine is proportional to the amount of chlorpromazine consumed during the on-line metabolism experiment.
Pentoxyresorufin (1 μg) was injected into the ultrafiltration chamber containing hepatic microsomes as described herein.
Microsomes may be prepared from any types of cells or tissues, which are obtained from any species including humans. For the examples cited, male or female Sprague-Dawley rats (180-200 g) were obtained from Sasco Inc. (Omaha, Nebr.). Microsomes were prepared from rat liver, and protein and cytochrome P450 concentrations were determined using standard procedures (1). […] This washing step may be accelerated by using a higher flow rate, but care should be taken to avoid excessive pressure and rupture of the ultrafiltration membrane.
The ultrafiltration chamber (FIG. 1B) was built in-house out of polyetheretherketone (PEEK) and contained a Teflon®-coated magnetic stirring bar and a Viton® O-ring, which formed a seal around the ultrafiltration membrane. […] Chromatography tubing and fittings were made from polyetheretherketone (PEEK, Upchurch Scientific, Oak Harbor, Wash.).
NADPH and drug substrates were purchased from Sigma Chemical Company (St. Louis, Mo. All solvents were HPLC grade. Into a mobile phase consisting of 50 mM anmmonium acetate, pH 7.4, and 0.1 mM NADPH at a flow rate of 70 μL/min, chlorpromazine (3 μg) in 50 μL buffer was injected into the ultrafiltration chamber. Protonated molecules of chlorpromazine, cofactor NADPH, and the microsomal metabolic products were recorded continuously using positive ion electrospray mass spectrometry. In another experiment, 1 μg of pentoxyresorufin was injected into the ultrafiltration chamber containing hepatic microsomes as described above. […] In some experiments, NADPH was injected simultaneously with substrate instead of being added to the mobile phase.
Typically, a wide mass range was scanned by the mass spectrometer in order to identify the major metabolites (if unknown). Once the major metabolites are known or if only the compounds injected into the first chamber need to be analyzed, selected ion monitoring mass spectrometry is used to follow the appearance of metabolites, monitor the consumption of NADPH, and/or monitor the profile of unreacted compound(s).
The transfer line between the ultrafiltration chamber and the mass spectrometer was flushed for 1 min, then mass spectra were recorded for 2 min.

cytochrome P450 isozymes = conditions: cited from earlier work
[2] = test system: rat liver microsomes containing cytochromes P450 and microsomal glutathione S-transferase
From the text: Alternatively, reactive metabolites may be trapped as phase II conjugates such as glutathione adducts.
Glutathione adducts formed from reactive drugs or their activated metabolites in the ultrafiltrate may be trapped and concentrated on a trapping column and then analyzed using LC-MS or LC-MS-MS for identification of the metabolites and for the differentiation of isomeric products.

| metabolites detected in high throughput metabolic screening [1] | extent of metabolism by cytochromes P450 indicated by high throughput assays [1] | SMILES | effect on cytochrome P450 isozymes according to the literature (cytochrome P450 isozymes) | metabolism according to the literature (cytochrome P450 isozymes) | further results |
| --- | --- | --- | --- | --- | --- |
|  |  | CC(=O)Oc1ccccc1C(=O)O [aspirin] |  |  | relative elution rates aspirin/propranolol (ratio of slopes of ln [drug] vs. elution time) (Caco-2 cells): 1.6:1 |
|  |  | CCCCCOc1ccc2nc3ccc(=O)cc-3oc2c1 [Pentoxyresorufin] |  |  | metabolism in control without NADPH [1]: no metabolism occurred |
| no metabolites | not | C=C[C@H]1C[N@@]2CC[C@H]1C[C@@H]2[C@@H](O)c1ccnc2ccc(OC)cc12 [quinidine] | inhibit the action of certain cytochrome P450 isozymes | not metabolized |  |
| observed | extensive metabolism | CN(C)CCCN1c2ccccc2Sc2ccc(Cl)cc21 [chlorpromazine] |  | metabolized extensively |  |
| no metabolites | not | O=C1C[C@@H](c2ccc(O)cc2)Oc2cc(O)cc(O)c21 [naringenin] | inhibit the action of certain cytochrome P450 isozymes | not metabolized |  |
|  |  | Cc1c[nH]c2ccccc12 [3-methylindole] |  |  | glutathione adducts detected [2]: observed |
